According to a melting point compilation (Tetko et al.; mined from patent text by program, amines drawn as free bases though some values may be those of a salt):

| melting point | Compound |
| --- | --- |
| 180 to 181 °C | Cc1ccc(S(=O)(=O)Nc2cccc(CCC(=O)c3cnc4sc(C)c(C)n34)c2)cc1 |
| 91 to 92 °C | CCc1nccn1-c1nc(-c2ccc(Cl)cc2)c(CCCOc2ccccc2C)o1 |
| 175 to 179 °C | CC(=NNc1ccc(-c2c[nH]c(=O)cn2)cc1)c1ccncc1 |
| 75 to 78 °C | CC(F)(C(N)=O)c1ccc(OS(=O)(=O)C(F)(F)F)cc1 (centres undefined) |
| 165 °C | CN1C(=O)N(c2nnc(C(C)(C)C)s2)C(=O)C1(C)OC(N)=O (centres undefined) |
| 197 to 200 °C | CCOC(=O)c1cn(-c2nc(NCc3ccc(OC)cc3)c(F)cc2F)c2c(Cl)c(F)c(F)cc2c1=O |
| 235 to 236 °C | Cc1ccc2nc(C3(c4ccc(S(N)(=O)=O)cc4)C=C(C(F)F)NN3)sc2c1 (centres undefined) |
| 159 to 160 °C | CCOCCc1c(-c2ccccc2)nc(Br)n2ncnc12 |
| 70.1 to 71 °C | O=C(NCCc1ccccc1Cl)c1ccccc1 |
| 102 to 103 °C | CON=C1COc2cc(OCc3ccccc3N(OC)C(=O)OC)ccc21 |
| 156 °C | CN1[C@@H](c2cccc(I)c2)c2ccccc2S1(=O)=O |
| 88 to 90 °C | CC(=O)n1cc(Cl)c(-c2cccc(Cl)c2)c1 |
| 126 °C | COC(=O)c1cc(NC(=O)OC(C)(C)C)c([N+](=O)[O-])cc1I |
| 180 to 181 °C | NC(=O)CNC(=O)c1cccc(-c2ccc3c(c2)C(Oc2ccc(Cl)cc2Cl)CC3)c1 (centres undefined) |
| 90 to 94 °C | O=C(c1ccccc1)C1CCCS1(=O)=O (centres undefined) |
| 167 to 168 °C | Oc1cccc2c1sc1ccccc12 |
| 131 to 133 °C | CNC(=O)c1ccnc([N+](=O)[O-])c1 |
| 145 to 147 °C | Cc1cn(-c2ccc(S(N)(=O)=O)c(F)c2)c(-c2ccc(-c3cscn3)cc2)n1 |
| 214 to 215 °C | CC1(C)CC2(CC(C)(C)c3ccc(Oc4ccc(N)cc4)cc32)c2cc(Oc3ccc(N)cc3)ccc21 |
| 266 °C | O=C1OC(=O)c2cc3cc(O)ccc3cc21 |
| 219 to 220 °C | COc1cc(OC)nc(NC(=O)NS(=O)(=O)c2ccccc2CN2CN=CN2)n1 |

| melting point | Compound |
| --- | --- |
| 62 to 71 °C | Cc1cc(OCCC#Cc2ccc(OC(F)(F)F)cc2)ccc1OC(C)(C)C(=O)O |
| 146 to 148 °C | CCOC(=O)c1c(C)cc(NC=O)c(C(=O)O)c1C |
| 158 to 160 °C | CCCCOc1cc(C(=O)O)n(Cc2ccc(C(F)(F)F)cc2Cl)n1 |
| 157 to 158 °C | O=[N+]([O-])c1ccc(S(=O)(=O)NCc2ccccc2C(F)(F)F)c([N+](=O)[O-])c1 |
| 198 to 201 °C | COc1cc(Nc2c(C#N)cnc3cc(-c4ccc(CNCCS(=O)(=O)c5ccccc5)cc4)ccc23)c(Cl)cc1Cl |
| 95 to 97 °C | CC(=O)c1nc2ccc(OC(C)C)cc2cc1O |
| 177 to 178 °C | Cc1nn(CC2CCCC2)c2nc(-c3ccncc3)nc(N)c12 |
| 94 to 96 °C | COC(=O)C1=CC(NC(=O)OC(C)(C)C)CO1 (centres undefined) |
| 167 to 180 °C | O=C(COc1ccc(Cl)cc1Cl)Nc1ccnn1-c1c(Cl)cc(C(F)(F)F)cc1Cl |
| 76 to 79 °C | O=CNc1nc(OCOC(=O)C2CCCC2)ncc1F |
| 250 to 253 °C | CC1(C)CC(=O)C(c2ccc([N+](=O)[O-])cc2Cl)C(=O)C1 |
| 111 to 115 °C | CC(=O)NCC#CCn1cncc1C |
| 86 to 87.5 °C | COc1c(Sc2ccccc2)c2cccnc2n1-c1ccccc1 |
| 155 to 157 °C | O=C1C2CCCC2=Nc2ccccc2N1Cc1ccc(Cl)cc1 (centres undefined) |
| 227 to 231 °C | COc1cccc(C(=O)c2[nH]c3cc(Cl)ccc3c2CC(=O)O)c1 |
| 265 to 267 °C | O=C1C(=O)c2ccccc2C2=C1SCC1(CCN(C(=O)c3cn4c5c(cccc35)CCC4)CC1)O2 |
| 98 to 107 °C | CCOC(=O)c1ccc(NCCCc2ccc(OCc3ccccc3)cc2)cc1 |
| 77 to 78 °C | CC(C)(C)OC(=O)NCCCCCCNS(=O)(=O)c1ccc(Oc2ccccc2)cc1 |
| 162 to 164 °C | C1=Cc2ccccc2C(C2CCN(C3CCCCC3)CC2)c2ccccc21 |
| 167 to 168 °C | CCOC(=O)c1cccc(-c2cn(C)cc(-c3ccccc3)c2=O)c1 |
| 175 to 176 °C | O=C1c2ccccc2C(=O)N1CC(Br)(c1ccccc1)C(Br)Br (centres undefined) |

| melting point | Compound |
| --- | --- |
| 131 to 133 °C | CNc1ccccc1C(=O)NCCCn1cncn1 |
| 186 to 187 °C | O=[N+]([O-])c1cccc2cc(-c3ncns3)[nH]c12 |
| 146 to 147 °C | CCCCCC(CC(=O)Nc1cc(C(=O)O)ccc1C(C)(C)C)c1cccc(OC)c1OC (centres undefined) |
| 62 to 67 °C | COc1ccc(OCC2CN(C(C)CO)C(=O)O2)cc1 (centres undefined) |
| 174 to 176 °C | NC1=Nc2ccccc2C2CCCC12F (centres undefined) |
| 193 to 194 °C | CCN1CN2C(=N1)C(c1ccccc1Cl)=NCC1=C2S(=O)C(C(=O)NC)C1 (centres undefined) |
| 42 to 44.5 °C | N#CCCCCCCNCc1ccc(O)cc1 |
| 165 to 168 °C | CCOC(Cc1ccc2oc(Cc3nc(-c4ccccc4)oc3C)cc2c1)C(N)=O (centres undefined) |
| 162 to 164 °C | C=CCOc1ccccc1-c1ncc(C#N)c(=O)[nH]1 |
| 37 to 39 °C | CCCCCCCCCCCC(=O)NC(CCCCNN=C=S)C(=O)O (centres undefined) |
| 108 °C | O=[N+]([O-])c1ccc(OC(c2c(Cl)cccc2Cl)C(F)(F)F)cc1 (centres undefined) |
| 203 to 204 °C | COc1ccc(N2CCOCC2)c2sc(-c3nc4c([nH]3)COCC4)nc12 |
| 168 °C | O=S1(=O)c2cccc3cccc(c23)N1CCCN1CCC(c2ccccc2)(c2ccccc2)CC1 |
| 46 °C | CC1=CC(C)(C)C=C(O)C1 |
| 149 to 151 °C | O=C(O)Cc1cc(O)c2c(c1)CCc1ccccc1C2=O |
| 184 °C | CCOC(=O)Cn1c2ccc(Cl)ccc-2c(C(C)=O)c1=O |
| 210 to 212 °C | CS(=O)(=O)c1ccc(-c2cnn(-c3cccc(Br)c3)c(=O)c2-c2ccc(F)cc2)cc1 |
| 165 °C | Nc1nc2ccccc2c2c1nc(CCC1CCCC1)n2CCOc1ccccc1 |
| 265 to 266 °C | CC(=O)Nc1ccc(-c2coc3cc(OC(C)=O)c(O)cc3c2=O)cc1 |

Second part, the compound before the results:

| Compound | melting point |
| --- | --- |
| CCCCCC(O)CNCCCCCCCCNCC(O)CCCCC (centres undefined) | 128 to 133 °C |
| CCCCc1nc(CO)c(C(N)=O)n1Cc1ccc(-c2ccccc2C(=O)OC(C)(C)C)cc1 | 222 to 224 °C |
| Nc1ccc(I)cc1CO | 125 °C |
| Cc1ccc(-c2cc3cc(C=O)ccc3o2)cc1 | 162 to 164 °C |
| COP(=O)(Cc1nc(C)c(C)o1)OC | 54 to 57 °C |
| CCCCCCOP(=O)(OCCCCCC)c1ccc(NC(=O)c2cccc([N+](=O)[O-])c2)cc1 | 98 °C |
| NS(=O)(=O)c1cccnc1N1CCSCC1 | 176 to 177 °C |
| Nc1cccc(Oc2cccc(Oc3cccc(N)c3)n2)c1 | 118 to 120 °C |
| O=C1c2ccc(OCCN3CCOCC3)cc2C(=O)c2ccc(OCCN3CCOCC3)cc21 | 200 to 201 °C |
| Cc1ccnc(C(O)c2sc(NC(=N)N)nc2C)c1 (centres undefined) | 150 to 152 °C |
| CN1Cc2ccc(Cl)cc2P1(=O)c1ccccc1 (centres undefined) | 159 to 162 °C |
| CCOC(=O)c1ccc(OCCC2CN(c3nnc(Br)s3)CCO2)cc1 (centres undefined) | 131 °C |
| O=C(c1ccccc1)c1cc(Cl)cc(I)c1O | 110 to 111 °C |
| CC(C)(C)C1=C(C(=O)OCc2ccc([N+](=O)[O-])cc2)N2C(=O)C(C)(C)C2O1 (centres undefined) | 119 to 120 °C |
| Cn1c(-c2ccccc2)nc2cnc3ccccc3c21 | 168 to 170 °C |
| Cn1nnnc1C(F)(F)C(O)(Cn1cncn1)c1ccc(F)cc1F (centres undefined) | 160 to 165 °C |
| C#CC(C)N1CCNC1=O (centres undefined) | 90 to 92 °C |
| O=C(NC[C@H](O)[C@@H](O)[C@H](O)C(=O)CO)OCc1ccccc1 | 107 to 111 °C |
| C=CCN(CC=C)c1nc(N(CC=C)CC=C)nc(N2CCN(C(=O)NC(c3ccccc3)c3ccccc3)CC2)n1 | 158 to 159 °C |
| NNC1=NCc2c[nH]c3cccc1c23 | 188 to 189 °C |
| CNC(=O)N1CC(C)(C)N(C)C(C)(C)CC1=O | 111 to 113 °C |
| Nc1cc(C(Cl)(Cl)Cl)ccn1 | 114 °C |

| Compound | melting point |
| --- | --- |
| COc1ccccc1CNC(=O)c1[nH]c2ccc(Cl)cc2c1S(=O)(=O)c1ccccc1 | 235 to 237 °C |
| N#CCc1cn(Nc2ccncc2)c2ccccc12 | 80 to 83 °C |
| COc1ccc(S(=O)(=O)Nc2c(C(=O)NO)cc(C)c(Cc3ccccc3)c2C#N)cc1 | 175 °C |
| CCCCC(=O)C1(Nc2ccccc2)CCN(CCc2ccccc2)CC1 | 71.3 °C |
| CC(C)C(C(=O)O)N1CCCNC1=O (centres undefined) | 176 to 177 °C |
| Cc1ccccc1-c1nc(=S)n(Cc2ccccc2)[nH]1 | 150 to 153 °C |
| CC(C)c1cccc(C(C)C)c1NC(=O)C(Cc1ccccc1)NC(=O)NC(C)(C)C (centres undefined) | 241 to 242 °C |
| CC(=O)C1C=C(Br)C(=O)CO1 (centres undefined) | 78 to 80 °C |
| CCCn1cc2c(C3C(=O)Nc4ccc(C#N)cc43)nc(NCCc3cccnc3)nc2n1 (centres undefined) | 302 to 305 °C |
| CCOCc1nc2c(N)nc(C)c(C)c2n1CCOCc1ccccc1 | 107 to 108 °C |
| CCOC(=O)c1cc2c(=O)c3cc(C(C)=O)ccc3oc2nc1N | > 300 °C |
| CC(C(=O)c1ccncc1)c1ccc(C2=CCCCC2)cc1 (centres undefined) | 88 to 90 °C |
| CCCCc1nc2ccccc2n1Cc1ccc(-c2ccccc2C(=O)OC)cc1 | 132 to 134 °C |
| Cc1cc(C)nc(NCC(O)CO)n1 (centres undefined) | 124 to 127 °C |
| COc1ccc(/C(C)=C/c2ccncc2)cc1OC1CCCC1 | 78 to 79 °C |
| O=C(O)C(O)C(Sc1ccc(O)cc1)c1ccccc1CCCCCCCCc1ccccc1 (centres undefined) | 155 to 157 °C |
| O=C(c1cccs1)c1cnn2c(-c3cccc(-c4nnn(CCO)n4)c3)ccnc12 | 134 °C |
| CN1Cc2c(C#N)ncn2-c2ccc(F)c(Cl)c2C1=O | 221 to 223 °C |
| O=C(O)c1cn(CCCc2ccccc2)c2cc(C3CC3)nn2c1=O | 95 to 100 °C |
| CN1C[C@@H]2CN(c3ccc4nc(Br)cn4n3)C[C@@H]2C1 | 144 to 146 °C |
| CCOC(=O)N1CCN(c2nc3c(cc2F)c(=O)c(C(=O)O)cn3C2CC2)CC1 | 277 to 279 °C |
